The structures appear in SMILES notation.

Data set [1] in a line: drug trapping percentage into microcapsules (amount actually incorporated vs amount charged). In kind it is physicochemical. The settings on record: comparison microcapsules, 53 mg TRH, w/o emulsion viscosity about 2,000 cp. The protocol: (§1) The microcapsules obtained by charging TRH in an amount of 1-20% based on PLGA and following the above procedure were tested for drug trapping percentage (percentage of amount actually incorporated into microcapsules to amount charged) and further assayed, in an in vitro dissolution test, for residual TRH in microcapsules after one day of standing in phoshpate buffer (pH 7.0) at 37° C.
(§2) For these microcapsules, the percentage of trapping of CG-3509 was determined and the residual CG-3509 in the microcapsules after one-day standing in phosphate buffer (pH 7.0) at 37° C. was assayed in an in vitro dissolution test.

Data set [2] in a line: in vitro dissolution test: residual drug in microcapsules standing in phosphate buffer (pH 7.0) at 37° C. In kind it is physicochemical. As for the experimental part: as §1
(b) 1/30M phosphate buffer (pH 7.0), 37° C. (mean for n = 2).
The microcapsules obtained by the procedure of Example 1 were examined for in vitro drug release property and for in vivo drug release property after subcutaneous administration to rats (the residual drug amount in microcapsules at the site of administration was determined).
as §2

Turning to `NC(=O)[C@@H]1CCCN1C(=O)[C@H](Cc1cnc[nH]1)NC(=O)[C@@H]1CCC(=O)N1` [TRH, pyroGlu-His-ProNH2], the trapping percentage was determined as 77% in data set [1] (4 g PLGA, TRH to PLGA 1.33%) and 98% in data set [1] (6 g PLGA, TRH to PLGA 0.88%). Moreover, the first day release in data set [2] (Example 2, TRH 2% relative to PLGA, free form or strong acid added) worked out at 15.8%. Also, the initial release was determined as 33.2% in data set [2] (Example 2, acetic acid added, TRH 2% relative to PLGA); 22.6% in data set [2] (acetic acid added, TRH 5% relative to PLGA); 67% in data set [2] (comparison microcapsules, TRH to PLGA 0.88%); 71% in data set [2] (comparison microcapsules, TRH to PLGA 1.33%). The “release of the first day” value in data set [2] (TRH concentration relative to PLGA 1%) was determined as 65.7%.

(Values after patent US5652220A, “Encapsulation of TRH or its analog” (Takeda Chemical Industries, Ltd., priority 1986, dated 1997).)
